Test results: the NIST ThermoML archive (doi:10.1021/je060271a)

Details: 343.15 K, Liquid, Vibrating tube method

CCCCCCCC(=O)OCC(COC(=O)CCCCCCC)(COC(=O)CCCCCCC)COC(=O)CCCCCCC [pentaerythritol tetraoctanoate]
Details	mass density [kg/m3]
4105.1 kPa	929.1
4132.4 kPa	929.2
4136.6 kPa	929.1
4140.2 kPa	929.1
4142.5 kPa	929
4144.7 kPa	929.2
4148 kPa	929.2
4149.4 kPa	929
4149.6 kPa	929
4163.9 kPa	929.2
4189.2 kPa	929.1
4213.5 kPa	929.1
4238.2 kPa	929.2
4268.5 kPa	929.1
4295 kPa	929.3
4321.4 kPa	929.2
4348.4 kPa	929.2
4373.8 kPa	929.1
4394.2 kPa	929.2
4418.5 kPa	929.1
4438.6 kPa	929.2
4459 kPa	929.3
4483.8 kPa	929.4
4504.7 kPa	929.3
4525.8 kPa	929.4
4546.8 kPa	929.4
4573.1 kPa	929.3
4596.8 kPa	929.5
4619 kPa	929.5
4641.5 kPa	929.4
4713.3 kPa	929.5
4740.6 kPa	929.4
4763.8 kPa	929.5
4787 kPa	929.6
4811.1 kPa	929.6
4839.6 kPa	929.6
4864.5 kPa	929.5
4889.8 kPa	929.7
4915.8 kPa	929.8
4945.5 kPa	929.6
4970.5 kPa	929.8
4996.2 kPa	929.6
5026.3 kPa	929.7
5052.8 kPa	929.8
5079.6 kPa	929.8
5112.2 kPa	929.7
5139.3 kPa	929.8
5167 kPa	929.8
5189.5 kPa	929.8
5228.6 kPa	929.8
5257.5 kPa	929.9
5286.4 kPa	929.8
5321 kPa	930
5350.7 kPa	930
5380.5 kPa	929.9
5410.7 kPa	929.9
5447.9 kPa	929.9
5480.3 kPa	930
5514 kPa	930.1
5545.6 kPa	930.2
5572.5 kPa	930.2
5593.9 kPa	930.1
5619.7 kPa	930.1
5642.1 kPa	930.2
5664.3 kPa	930.2
5686.4 kPa	930.2
5712.7 kPa	930.3
5735.2 kPa	930.2
5757.8 kPa	930.3
5785.1 kPa	930.2
5808.1 kPa	930.2
5832 kPa	930.3
5855.9 kPa	930.3
5884.4 kPa	930.4
5908.6 kPa	930.4
5933.3 kPa	930.4
5959.2 kPa	930.5
5984.1 kPa	930.3
6013.9 kPa	930.4
6039.1 kPa	930.4
6064.3 kPa	930.5
6090.1 kPa	930.4
6121 kPa	930.5
6147.5 kPa	930.5
6174.6 kPa	930.5
6205.9 kPa	930.5
6232.5 kPa	930.6
6260.2 kPa	930.7
6288.7 kPa	930.6
6316.5 kPa	930.6
6348.8 kPa	930.7
6376.3 kPa	930.6
6404.7 kPa	930.6
6439.7 kPa	930.7
6468.8 kPa	930.7
6497.8 kPa	930.7
6532.7 kPa	930.8
6563.4 kPa	930.8
6593.5 kPa	930.9
6624.3 kPa	930.8
6662.3 kPa	930.8
6694.9 kPa	930.9
6726.4 kPa	930.9
6757.3 kPa	930.9
6788.9 kPa	931.1
6826.4 kPa	931
6858.7 kPa	931.1
6891.5 kPa	931
6930.9 kPa	931.2
6964.4 kPa	931
6998.3 kPa	931.1
7038.9 kPa	931.2
7073.6 kPa	931.2
7109 kPa	931.2
7146.6 kPa	931.3
7184.3 kPa	931.3
7220.4 kPa	931.2
7264.4 kPa	931.2
7301.6 kPa	931.4
7339.6 kPa	931.5
7378.1 kPa	931.3
7424.8 kPa	931.3
7463.5 kPa	931.5
7503.2 kPa	931.5
7535.8 kPa	931.5
7575 kPa	931.6
7614.7 kPa	931.5
7673.1 kPa	931.6
7715 kPa	931.7
7765.2 kPa	931.6
7808 kPa	931.8
7853.1 kPa	931.7
7898.8 kPa	931.7
7950.2 kPa	931.8
7984.6 kPa	931.8
8150.9 kPa	931.9
8189.7 kPa	932
8222.6 kPa	932
8255.6 kPa	932
8295.8 kPa	932.1
8329.6 kPa	932.1
8363.2 kPa	932.1
8515 kPa	932.1
8550.2 kPa	932.2
8585.9 kPa	932.3
8629.7 kPa	932.3
8666.6 kPa	932.3
8703.3 kPa	932.4
8739.9 kPa	932.4
8784.7 kPa	932.5
8991.7 kPa	932.5
9031.4 kPa	932.6
9071.9 kPa	932.5
9120.5 kPa	932.6
9162.4 kPa	932.7
9204.8 kPa	932.7
9248.6 kPa	932.6
9301 kPa	932.7
9344.4 kPa	932.8
9387.6 kPa	932.8
9449 kPa	932.8
9480 kPa	933
9517.6 kPa	933
9549.6 kPa	933.1
9582.5 kPa	933
9620.6 kPa	932.9
9653.7 kPa	933.2
9687.4 kPa	933
9726.7 kPa	933.1
9760 kPa	933.1
9793.4 kPa	933.2
9827.7 kPa	933
9868.1 kPa	933.1
9902.1 kPa	933.2
9943.1 kPa	933.2
9978.4 kPa	933.4
10014 kPa	933.3
10058 kPa	933.4
10096 kPa	933.4
10138 kPa	933.4
10176 kPa	933.4
10207 kPa	933.3
10234 kPa	933.4
10256 kPa	933.5
10278 kPa	933.4
10305 kPa	933.6
10327 kPa	933.5
10349 kPa	933.5
10376 kPa	933.6
10422 kPa	933.8
10450 kPa	933.7
10474 kPa	933.6
10497 kPa	933.7
10520 kPa	933.7
10543 kPa	933.8
10572 kPa	933.6
10595 kPa	933.7
10618 kPa	933.7
10647 kPa	933.6
10671 kPa	933.7
10699 kPa	933.7
10723 kPa	933.8
10748 kPa	933.8
10777 kPa	933.8
10803 kPa	933.9
10827 kPa	933.9
10852 kPa	933.8
10881 kPa	933.9
10906 kPa	933.9
10936 kPa	934
10961 kPa	934
10987 kPa	933.9
11012 kPa	933.9
11042 kPa	934
11068 kPa	934
11099 kPa	934.1
11126 kPa	933.9
11153 kPa	934
11180 kPa	934.2
11206 kPa	934.2
11238 kPa	934.2
11264 kPa	934.2
11296 kPa	934.3
11323 kPa	934.3
11350 kPa	934.2
11383 kPa	934.3
11410 kPa	934.3
11438 kPa	934.3
11471 kPa	934.3
11499 kPa	934.3
11528 kPa	934.4
11561 kPa	934.4
11590 kPa	934.4
11618 kPa	934.4
11647 kPa	934.2
11710 kPa	934.4
11739 kPa	934.5
11774 kPa	934.4
11804 kPa	934.5
11834 kPa	934.4
11869 kPa	934.5
11900 kPa	934.6
11930 kPa	934.7
11966 kPa	934.6
11997 kPa	934.7
12027 kPa	934.6
12064 kPa	934.7
12095 kPa	934.7
12126 kPa	934.7
12163 kPa	934.8
12195 kPa	934.7
12227 kPa	934.8
12265 kPa	934.9
12296 kPa	934.8
12329 kPa	934.9
12362 kPa	934.8
12401 kPa	934.9
12434 kPa	935
12468 kPa	935
12507 kPa	935
12541 kPa	935
12575 kPa	935
12615 kPa	935.1
12649 kPa	935.2
12684 kPa	935.1
12725 kPa	935.1
12760 kPa	935.1
12797 kPa	935.2
12831 kPa	935.2
12873 kPa	935.3
12909 kPa	935.2
12944 kPa	935.3
12980 kPa	935.3
13024 kPa	935.5
13060 kPa	935.3
13096 kPa	935.4
13140 kPa	935.5
13177 kPa	935.5
13222 kPa	935.7
13261 kPa	935.6
13300 kPa	935.6
13339 kPa	935.6
13384 kPa	935.7
13423 kPa	935.6
13462 kPa	935.6
13508 kPa	935.7
13548 kPa	935.8
13587 kPa	935.6
13635 kPa	935.7
13675 kPa	935.7
13716 kPa	935.8
13807 kPa	936
13849 kPa	936
13893 kPa	936
13947 kPa	936
13993 kPa	936.1
